Patent US20090023721A1, “Novel Substituted Tetracyclic Tetrahydrofuran, Pyrrolidine and Tetrahydrothiophene Derivatives and Their Use as a Medicament” (priority 2005, published 2009)
Read-outs that look alike come from different tables or passages of the source.

Assays:
NET = molecular target: T1, NET (Rattus norvegicus, UniProt Q9WTR4); assay: In vitro determination of NET reuptake inhibition ([3H]Nixosetine binding, rat brain cortex membranes)
T1 construct: Cortex from rat brain was collected and homogenised; from tissue; host or cells: rat brain cortex membranes
T1 sequence (Q9WTR4 1-597): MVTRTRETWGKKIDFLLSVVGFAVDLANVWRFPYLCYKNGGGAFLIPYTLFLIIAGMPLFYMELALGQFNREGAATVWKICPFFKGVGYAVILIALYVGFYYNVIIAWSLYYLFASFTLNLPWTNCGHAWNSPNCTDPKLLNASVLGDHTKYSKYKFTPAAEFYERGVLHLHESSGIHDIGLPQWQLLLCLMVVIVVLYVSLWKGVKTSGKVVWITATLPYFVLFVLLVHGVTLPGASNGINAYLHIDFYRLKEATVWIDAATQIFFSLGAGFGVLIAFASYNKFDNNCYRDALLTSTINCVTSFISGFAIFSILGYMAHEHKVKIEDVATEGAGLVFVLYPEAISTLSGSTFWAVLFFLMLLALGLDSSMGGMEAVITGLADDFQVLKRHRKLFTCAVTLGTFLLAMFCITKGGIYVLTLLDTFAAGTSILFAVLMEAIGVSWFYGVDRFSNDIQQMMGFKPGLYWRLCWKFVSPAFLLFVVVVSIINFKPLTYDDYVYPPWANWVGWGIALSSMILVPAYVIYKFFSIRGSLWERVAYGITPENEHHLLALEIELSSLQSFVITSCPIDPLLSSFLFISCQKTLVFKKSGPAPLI
Experimental: Cortex from rat brain was collected and homogenised using an Ultra-Turrax T25 and a Dual homogeniser in ice-cold homogenising buffer containing Tris, NaCl and KCl (50 mM, 120 mM and 5 mM, respectively, pH 7.4) prior to dilution to an appropriate protein concentration optimised for specific and non-specific binding. […] Membrane-bound activity was detected by filtration through a Packard Filtermate harvester onto GF/B Unifilterplates, washed with ice-cold Tris-HCl buffer, containing NaCl and KCl (50 mM, 120 mM and 4 mM; pH 7.4; 6×0.5 ml). Filters were allowed to dry for 24 h before adding scintillation fluid. Scintillation fluid was allowed to saturate filters for 24 h before counting in a Topcount scintillation counter. Percentage specific bound and competition binding curves were calculated using S-Plus software (Insightful).

[1] = molecular target: T2, human cloned 5-HT2C receptor, expressed in CHO cells (Homo sapiens, UniProt P28335); assay: In vitro radioligand binding affinity for 5-HT2C receptor ([3H]mesulergine)
T2 construct: expressed in transfected cells; host or cells: CHO cells
T2 sequence (P28335 33-458): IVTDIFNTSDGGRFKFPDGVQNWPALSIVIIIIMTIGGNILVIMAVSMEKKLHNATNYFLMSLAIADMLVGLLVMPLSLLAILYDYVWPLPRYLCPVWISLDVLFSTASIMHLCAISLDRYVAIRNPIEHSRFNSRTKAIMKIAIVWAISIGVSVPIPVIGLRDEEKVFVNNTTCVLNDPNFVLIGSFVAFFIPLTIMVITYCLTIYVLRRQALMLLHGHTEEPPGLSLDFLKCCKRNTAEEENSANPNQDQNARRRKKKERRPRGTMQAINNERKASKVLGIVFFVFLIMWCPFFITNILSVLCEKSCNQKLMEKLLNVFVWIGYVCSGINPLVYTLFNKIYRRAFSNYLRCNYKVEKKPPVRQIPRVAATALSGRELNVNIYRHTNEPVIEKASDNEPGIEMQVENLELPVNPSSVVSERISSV
Experimental: The interaction of the compounds of Formula (I) with 5-HT2A and 5-HT2C receptors was assessed in in vitro radioligand binding experiments. […] During the incubation, the radioligands bind to the receptor. When equilibrium of binding is reached, the receptor bound radioactivity is separated from the non-bound radioactivity, and the receptor bound activity is counted. The interaction of the test compounds with the receptors is assessed in competition binding experiments. Various concentrations of the test compound are added to the incubation mixture containing the tissue preparation and the radioligand. Binding of the radioligand will be inhibited by the test compound in proportion to its binding affinity and its concentration.

[2] = molecular target: T3, human cloned 5-HT2A receptor, expressed in L929 cells (Homo sapiens, UniProt P28223); assay: In vitro radioligand binding affinity for 5-HT2A receptor ([125I]R91150)
T3 construct: expressed in transfected cells; host or cells: L929 cells
T3 sequence (P28223 whole entry): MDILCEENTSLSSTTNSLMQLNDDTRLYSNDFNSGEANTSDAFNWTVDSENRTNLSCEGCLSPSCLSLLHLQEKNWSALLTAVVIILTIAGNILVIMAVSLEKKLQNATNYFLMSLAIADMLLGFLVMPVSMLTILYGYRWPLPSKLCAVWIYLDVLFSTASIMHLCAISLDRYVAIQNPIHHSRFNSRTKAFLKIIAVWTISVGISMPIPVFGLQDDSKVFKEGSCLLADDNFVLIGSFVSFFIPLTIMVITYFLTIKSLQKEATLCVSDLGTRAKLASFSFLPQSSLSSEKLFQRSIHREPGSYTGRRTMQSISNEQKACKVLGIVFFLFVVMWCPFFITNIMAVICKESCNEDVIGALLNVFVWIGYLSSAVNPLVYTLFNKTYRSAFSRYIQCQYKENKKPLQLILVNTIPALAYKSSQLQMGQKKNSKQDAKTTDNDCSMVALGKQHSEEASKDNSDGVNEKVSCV
Experimental: The interaction of the compounds of Formula (I) with 5-HT2A and 5-HT2C receptors was assessed in in vitro radioligand binding experiments. In general, a low concentration of a radioligand with a high binding affinity for the receptor is incubated with a sample of a tissue preparation enriched in a particular receptor (1 to 5 mg tissue) in a buffered medium (0.2 to 5 ml). During the incubation, the radioligands bind to the receptor. When equilibrium of binding is reached, the receptor bound radioactivity is separated from the non-bound radioactivity, and the receptor bound activity is counted. The interaction of the test compounds with the receptors is assessed in competition binding experiments. Various concentrations of the test compound are added to the incubation mixture containing the tissue preparation and the radioligand. Binding of the radioligand will be inhibited by the test compound in proportion to its binding affinity and its concentration. The affinities of the compounds for the 5-HT2 receptors were measured by means of radioligand binding studies conducted with: (a) human cloned 5-HT2A receptor, expressed in L929 cells using [^125I]R91150 as radioligand and (b) human cloned 5-HT2C receptor, expressed in CHO cells using [^3H]mesulergine as radioligand.

[3] = molecular target: T4, human Dopamine D2L receptor (Homo sapiens, UniProt P14416); assay: In vitro binding affinity for human D2L receptor ([3H]Spiperone)
T4 construct: expressed in transfected cells; host or cells: CHO cells (frozen membranes)
T4 sequence (P14416 whole entry): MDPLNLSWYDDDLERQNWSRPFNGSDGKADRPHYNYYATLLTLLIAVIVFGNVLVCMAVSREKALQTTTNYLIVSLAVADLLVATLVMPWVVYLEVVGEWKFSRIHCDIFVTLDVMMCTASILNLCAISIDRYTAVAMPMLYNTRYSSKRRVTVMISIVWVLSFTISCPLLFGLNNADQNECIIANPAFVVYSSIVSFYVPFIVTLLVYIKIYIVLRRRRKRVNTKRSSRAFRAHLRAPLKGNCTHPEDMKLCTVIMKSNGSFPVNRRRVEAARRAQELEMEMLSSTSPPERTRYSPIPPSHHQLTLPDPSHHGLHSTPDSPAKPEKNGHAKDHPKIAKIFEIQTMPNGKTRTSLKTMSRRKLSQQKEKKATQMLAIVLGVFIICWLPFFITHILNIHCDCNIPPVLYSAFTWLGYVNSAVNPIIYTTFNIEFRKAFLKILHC
Experimental: Frozen membranes of human Dopamine D2L receptor-transfected CHO cells were thawed, briefly homogenised using an Ultra-Turrax T25 homogeniser and diluted in Tris-HCl assay buffer containing NaCl, CaCl2, MgCl2, KCl (50, 120, 2, 1, and 5 mM respectively, adjusted to pH 7.7 with HCl) to an appropriate protein concentration optimised for specific and non-specific binding. Radioligand [^3H]Spiperone (NEN, specific activity ˜70 Ci/mmol) was diluted in assay buffer at a concentration of 2 nmol/L. Prepared radioligand (50 μl), along with 50 μl of either the 10% DMSO control, Butaclamol (10-6 mol/l final concentration), or compound of interest, was then incubated (30 min, 37° C.) with 400 μl of the prepared membrane solution. Membrane-bound activity was filtered through a Packard Filtermate harvester onto GF/B Unifilterplates and washed with ice-cold Tris-HCl buffer (50 mM; pH 7.7; 6×0.5 ml). Filters were allowed to dry before adding scintillation fluid and counting in a Topcount scintillation counter. Percentage specific bound and competition binding curves were calculated using S-Plus software (Insightful).

[4] = human cloned 5-HT2C receptor in CHO cells, [3H]mesulergine, read-out: h-5HT2C (converted)
[5] = human cloned 5-HT2A receptor in L929 cells, [125I]R91150, read-out: h-5HT2A (converted)
[6] = human D2L receptor-transfected CHO cell membranes, [3H]Spiperone, read-out: h-D2L (converted)
[7] = human cloned 5-HT2C receptor in CHO cells, [3H]mesulergine
[8] = human cloned 5-HT2A receptor in L929 cells, [125I]R91150
[9] = human D2L receptor-transfected CHO cell membranes, [3H]Spiperone

Row | SMILES | IC50 (NET) [nM] | IC50 [1, 4] [nM] | IC50 [2, 5] [nM] | IC50 [3, 6] [nM] | NET Reuptake Inhibition (NET) | IC50 [1] [nM] | IC50 [2] [nM] | IC50 [3] [nM] | h-5HT2C [1, 7] | h-5HT2A [2, 8] | h-D2L [3, 9]
1 | CNC[C@H]1C[C@@H]2c3ccccc3Cc3ccc(F)cc3[C@H]2N1C=O [compound 38, (2R,3aR,12bS)-11-fluoro-2-[(methylamino)methyll]-3,3a,8,12b-tetrahydrodibenzo-[3,4:6,7]cyclohepta[1,2-b]pyrrole-1 (2H)-carbaldehyde] | 490 | 186 | 631 | 7080 |  |  |  |  |  |  | 
2 | CN1CCN2[C@H](C[C@@H]3c4ccccc4Cc4ccc(F)cc4[C@H]32)C1 [14a, (5aS,14bR,15a,R)-7-fluoro-2-methyl-1,3,4,5a,10,14b,15,1 5a-octahydro-2H-dibenzo-[3′,4′:6′,7′]cyclohepta[1′,2′:4,5]pyrrolo[1,2-a]pyrazine] |  |  |  |  | 5.50 | 0.891 | 1.26 | 1.55 |  |  | 
3 | COC(=O)N1[C@@H](CN(C)C)C[C@@H]2c3ccccc3Cc3ccc(F)cc3[C@H]21 [36a, Methyl (2R,3aR, 12bS)-2-[(dimethylamino)methyl]-11-fluoro-3,3a,8,12b-tetrahydro dibenzo[3,4:6,7]cyclohepta[1,2-b]pyrrole-1(2H)-carboxylate] |  |  |  |  | 6.16 |  |  |  | <6 | <6 | <6
4 | COCC(=O)N1[C@@H](CN(C)C)C[C@@H]2c3ccccc3Cc3ccc(F)cc3[C@H]21 [compound 10, [(2R,3aR,12bS)-11-fluoro-1-(methoxyacetyl)-1,2,3,3a,8,12b-hexahydrodibenzo[3 ,4:6,7]cyclohepta[1,2-b]pyrrol-2-yl]-N,N-dimethylmethanamine] | 4790 | 427 | 692 | > 1000 |  |  |  |  |  |  | 
5 | CN(C)C[C@H]1C[C@@H]2c3ccccc3Cc3ccc(F)cc3[C@H]2N1 [37a, [(2R,3aR,12bS)-11-fluoro-1,2,3,3a,8,12b-hexahydrodibenzo[3,4:6,7]cyclohepta[1,2-b]-pyrrol-2-yl]-N,N-dimethylmethanamine] | 7.94 | 50.1 | 44.7 | 355 |  |  |  |  |  |  | 
6 | CSC1=NC[C@H]2C[C@@H]3c4ccccc4Cc4ccc(F)cc4[C@H]3N12 [compound 9, (4aS,13bR,14aR)-6-fluoro-3-(methylsulfanyl)-1,4a,9,13b,14,14a-hexahydrodibenzo-[3′,4′:6′,7′]cyclohepta[1′,2′:4,5]pyrrolo[1,2-c]imidazole] | 3980 | > 1000 | > 1000 | > 1000 |  |  |  |  |  |  | 
7 | CN1C[C@H]2C[C@@H]3c4ccccc4Cc4ccc(F)cc4[C@H]3N2C1=O [compound 7] | 891 | > 1000 | > 1000 | > 1000 |  |  |  |  |  |  | 
8 | Fc1ccc2c(c1)[C@@H]1[C@H](C[C@H]3CNC(=S)N31)c1ccccc1C2 [compound 3, (4aS,13bR,14aS)-6-fluoro-1,4a,9,13b,14,14a-hexahydrodibenzo-[3′,4′:6′,7′]cyclohepta-[1′,2′:4,5]pyrrolo[1,2-c]imidazole-3(2H)-thione] |  | 240 | > 1000 | > 1000 | 5.24 |  |  |  |  |  | 
9 | CN(C)C[C@@H]1C[C@@H]2c3ccccc3Cc3ccc(F)cc3[C@H]2[S@@+]1[O-] [compound 26, [(2S,3aR,12bS)-11-fluoro-1-oxido-3,3a,8,12b-tetrahydro-2H-dibenzo[3,4:6,7]-cyclohepta[1,2-b]thien-2-yl]-N,N-dimethylmethanamine] | > 10000 | > 10000 | > 10000 | > 10000 |  |  |  |  |  |  | 
10 | CN(C)C[C@H]1C[C@@H]2c3ccccc3Cc3ccc(F)cc3[C@H]2S1 [compound 23, [(2R,3aR,12bS)-11-fluoro-3,3a,8,12b-tetrahydro-2H-dibenzo[3,4:6,7]cyclohepta[1,2-b]thien-2-yl]-N,N-dimethylmethanamine] | 28.2 | 229 | 661 | 5010 |  |  |  |  |  |  | 
11 | CC(=O)N1[C@@H](CN(C)C)C[C@@H]2c3ccccc3Cc3ccc(F)cc3[C@H]21 [36b, [(2R,3aR, 1 2bS)-1-acetyl-11-fluoro-1,2,3,3a,8,12b-hexahydrodibenzo[3,4:6,7]cyclohepta[1,2-b]pyrrol-2-yl]-N,N-dimethylmethanamine] | 3890 | > 1000 | > 1000 | > 1000 |  |  |  |  |  |  | 
12 | CN(C)C[C@H]1C[C@@H]2c3ccccc3Cc3ccc(F)cc3[C@H]2N1C=O [36c] |  |  |  |  | 6.65 |  |  |  | 7.11 | 6.26 | 5.31
13 | CN1CC(=O)N2[C@@H](C[C@@H]3c4ccccc4Cc4ccc(F)cc4[C@H]32)C1 [compound 4, (5aS,14bR,15aS)-7-fluoro-2-methyl-1,2,3,5a,10,14b,15,15a-octahydro-4H-dibenzo [3′,4′:6′,7′]cyclohepta[1′,2′:4,5]pyrrolo[1,2-a]pyrazin-4-one] |  | > 1000 | > 1000 | > 1000 | <5 |  |  |  |  |  | 
14 | O=C1NC[C@@H]2C[C@@H]3c4ccccc4Cc4ccc(F)cc4[C@H]3N12 [compound 15, (4aS,13bR,14aS)-6-fluoro-1,4a,9,13b,14,14a-hexahydrodibenzo[3′,4′:6′,7′]cyclohepta-[1′,2′:4,5]pyrrolo[1,2-c]imidazol-3(2H)-one] | 2400 | 2340 | 8320 | > 10000 |  |  |  |  |  |  | 
15 | CNC[C@H]1CC[C@@H]2c3ccccc3Cc3ccc(F)cc3[C@H]2O1 [compound 46, [(2R,4aR,13bS)-12-fluoro-2,3,4,4a,9,13b-hexahydrodibenzo[3,4:6,7]cyclohepta-[1,2-b]pyran-2-yl]-N-methylmethanamine] | 398 | 5.89 | 13.8 | 6310 |  |  |  |  |  |  | 
16 | CN1C[C@@H]2C[C@@H]3c4ccccc4Cc4ccc(F)cc4[C@H]3N2C1 [compound 1, (4aS,13bR,14aS)-6-fluoro-2-methyl-1,2,3,4a,9,13b,14,14a-octahydrodibenzo-[3′,4′:6′,7′]cyclohepta[1′,2′:4,5]pyrrolo[1,2-c]imidazole] | 115 | 151 | 115 | 2240 |  |  |  |  |  |  | 
17 | CN(C)C[C@H]1C[C@@H]2c3ccccc3Oc3ccc(F)cc3[C@H]2N1 [compound 17, [(2R,3aR,12bS)-11-fluoro-2,3,3a,12b-tetrahydro-lH-dibenzo[2,3 :6,7]oxepino[4,5-b]pyrrol-2-yl]-N,N-dimethylmethanamine] | 7.41 | 501 | 575 | 2340 |  |  |  |  |  |  | 
